Values belong to the molecule of their own block, whether it stands above or below them.
Legend:
[1] = system: bacterial adhesion; details: heparin coating of abiotic surfaces; cited from earlier work
[2] = system: Candida albicans; details: heparin coating of abiotic surfaces; cited from earlier work
[3] = Encapsulation of active ingredients in the particles; type: physicochemical
Procedure: The protocol adopted for encapsulating the hydrophilic active ingredients is to dissolve the active ingredient in water at an initial concentration as indicated in Table 5 and then adding the amphiphilic polysaccharide and the α-cyclodextrin. The mixture is magnetically stirred for 3 days. After this mixing for 3 days, the concentration of the active ingredient that has not been encapsulated is determined in the supernatant of the preparation. The supernatant is separated either by simple sedimentation or by centrifugation of the microparticles, or after ultracentrifugation in the case of the nanoparticles.
The protocol adopted for encapsulating the hydrophobic active ingredients is to dissolve the active ingredient in an ethanol/water mixture at an initial concentration as shown in Table 26 and then add the amphiphilic polysaccharide and the α-cyclodextrin. The mixture is maintained under magnetic stirring for 3 days. After mixing for 3 days, the concentration of the active ingredient that has not been encapsulated is determined in the supernatant of the preparation. The supernatant is separated either by simple sedimentation or by centrifugation of the microparticles, or after ultracentrifugation in the case of the nanoparticles.

[4] = polysaccharide MC6, ethanol/water 40/60 % v/v, initial concentration 3.5 g/L
[5] = polysaccharide MC8, initial concentration 194 g/L, water
[6] = polysaccharide MC9, initial concentration 2.31 g/L, water
[7] = polysaccharide MC6, initial concentration 21.7 g/L, water
[8] = polysaccharide MC8, initial concentration 21.7 g/L, water
[9] = polysaccharide MC9, initial concentration 2.33 g/L, water
[10] = polysaccharide MC11, initial concentration 2.34 g/L, water

Molecule: Heparin
reduction of bacterial adhesion [1]: 90% | reduction of adhesion of Candida albicans [2]: approximately 50%

Molecule: Cc1ncc(CO)c(CO)c1O.Cl [Vitamin B6]
Concentration encapsulated [3, 5]: 104650 µg/mL | Encapsulation yield [3, 5]: 53.94% | Concentration encapsulated [3, 6]: 1520 µg/mL | Encapsulation yield [3, 6]: 65.82%

Molecule: Cn1c(=O)c2c(ncn2C)n(C)c1=O [Caffeine]
Concentration encapsulated [3, 7]: 3590 µg/mL | Encapsulation yield [3, 7]: 16.55% | Concentration encapsulated [3, 8]: 3150 µg/mL | Encapsulation yield [3, 8]: 17.53% | Concentration encapsulated [3, 9]: 510 µg/mL | Encapsulation yield [3, 9]: 22.23%

Second part, the molecule after the results:

Encapsulated concentration [3, 4]: 1.09 g/L | Encapsulation yield [3, 4]: 31.12%
Molecule: CC(C(=O)O)c1cccc(C(=O)c2ccccc2)c1 (stereo not shown) [Ketoprofen]

Concentration encapsulated [3, 10]: 780 µg/mL | Encapsulation yield [3, 10]: 33.33%
Molecule: CC(=O)Nc1ccc(O)cc1 [Paracetamol]

— US10412960B2, “Microparticles and nanoparticles made up of hydrophobized polysaccharides and an alpha-cyclodextrine” (priority 2012, dated 2019)
